In PubChem BioAssay AID2305 (GlaxoSmithKline (GSK), 2010) one finds IC50 data, which are given here for 86 molecules.

pIC50: −log10 of the molar value. “And” between values parts separate entries of the source, which are not always exact repeats. Equal entries are not always repeated.

The test system of the assay is P. falciparum 3D7 growth, pLDH absorbance. The experiment in a line: blood-stage malaria parasite growth potency – strain 3D7, dose response (AID 2305).
As usually defined, the pIC50 is −log10 of the IC50, conventionally taken in molar units. High values mean a low IC50, low ones a high IC50. `CC(C)(CNC(=O)[C@@H]1CCCCN1)c1nc(-c2ccc(Cl)c(O)c2)c(-c2ccncc2)[nH]1` had a pIC50 of 6.08. As to `Cc1ccccc1CNc1nccc(NCCC(=O)Nc2ccccc2)n1`, the pIC50 is 6.05. `NC1=NC2(CCCCC2)N(OCCOc2ccc(Cc3ccccc3)cc2)C(N)=N1` showed a negative-log IC50 (pIC50) of 5.95. `CCCc1cc(C)ccc1OCCCON1C(NC(=O)OCC)=NC(NC(=O)OCC)=NC1(C)C` had a negative-log IC50 (pIC50) of 7.40. `Cc1ccccc1N1CCN(c2ccc(C(=O)Nc3ccccc3)cn2)CC1` showed a pIC50 of 6.23. As for `COc1cccc(CCc2ccc(O)c3c2C[C@H]2C[C@H]4[C@H](N(C)C)C(=O)C(C(N)=O)=C(O)[C@@]4(O)C(=O)C2=C3O)c1`, the figure is 6.07; as for `O=C(/C=C/c1ccc(Cl)c(Cl)c1)NCCCCCN1CCC(NC(=O)NC2CCCCC2)CC1`, 6.25; as for `Nc1nc2ncn(COC(COCc3ccccc3)COCc3ccccc3)c2c(=O)[nH]1` (tested in a mixture with another compound), 6.15.

For `CCCCCCCN1[C@@H]2CC[C@H]1CC(CCOc1ccnc3ccc(OC)cc13)C2` (stereo partly specified), the pIC50 is 6.41. As for `CC(C)Oc1cc(-c2ccc(S(C)(=O)=O)cc2)nc(N(Cc2cccc(F)c2F)Cc2cccc(F)c2F)n1`, the figure is 6.92; as for `CC(C)(CNCc1cccc(Oc2cccc(C(F)(F)F)c2)c1)c1nc(-c2ccc(Cl)c(O)c2)c(-c2ccnc(N)n2)[nH]1`, 6.72. For `CC(Cc1ccc(Oc2ccccc2)cc1)NCC(O)c1cccc(C(F)(F)F)c1` (stereo unspecified), the pIC50 is 6.17. With `O=C(Nc1ccc(-c2nc3ccccc3[nH]2)cc1)C1CCN(Cc2cccc(F)c2F)CC1`, the negative logarithm of the IC50 (pIC50) was 5.96. Turning to `O=C(Nc1cncc(NC(=O)c2ccc(Cl)c(Cl)c2)c1)c1ccc(Cl)c(Cl)c1`, the pIC50 is 6.14.

`O=C(CCC(=O)c1ccc2c3c(cccc13)CC2)NC1CCC(CN2CCC(c3c[nH]c4ccccc34)CC2)CC1` (stereo unspecified) gave a pIC50 of 6.04. On to `CC(C)c1ccc(CN2CCC(NC(=O)c3ccc(-c4cccc(F)c4)s3)CC2)cc1`, for which the pIC50 was 5.88. Take `CC(=O)c1cccc(NC(=O)NC2CCN(c3ccnc(Nc4ccc(F)cc4)n3)C2)c1` (stereo unspecified): the pIC50 is 6.19.

Molecule `Cc1cccc2[nH]c(-c3cccc(-c4ccc(NC(=O)CN5CCOCC5)cc4)c3)nc12` gave a pIC50 of 5.98. Regarding `CS(=O)(=O)CCNCc1cccc(-c2ccc3c(Nc4ccc(Oc5cccnc5)cc4)ccnc3c2)c1`, the pIC50 was 6.85.

With `CCN(CC)CCn1c(=N)n(CC(=O)c2ccc(-c3ccccc3)cc2)c2ccccc21`, the pIC50 is 5.94. `CN1c2ccccc2Sc2cc(CNCCSCCNCc3ccc4c(c3)Sc3ccccc3N4C)ccc21`: the pIC50 is 6.00. For the molecule `COc1ccccc1CNCC(O)c1cc(C(F)(F)F)ccc1C(F)(F)F` (stereo unspecified), the pIC50 was 6.03. As for `NCC(=O)Nc1cccc(Nc2nccc(-c3c(-c4cccc(NC(=O)c5ccccc5)c4)nn4ccccc34)n2)c1`, the pIC50 was 6.37. With `CCN(C(=O)CSc1cc(C)c2cc(C)cc(C)c2n1)C1CCS(=O)(=O)C1` (stereo unspecified), the pIC50 was 6.17. `Cc1ccc(CC(C)NCC(O)c2cccc(Cl)c2)cc1` (stereo unspecified): the pIC50 is 6.03.

Turning to `CCOCCCNc1nc2cc(OC)c(OC)cc2c2nc(-c3ccccc3)nn12`, the pIC50 is 6.68. The result for `CCN1CCN(Cc2c(O)ccc3c(=O)c(Oc4cc(C)cc(C)c4)c(C(F)(F)F)oc23)CC1` reads 6.11; that for `N#Cc1ccc(N[C@@H](CC2CCCCC2)C(=O)N[C@@H]2CCCc3ccccc32)c2ccccc12`, 6.14. As for `c1cc(CN2CCN(CCN3CCOCC3)CC2)cc(-c2csc(-c3nc4ccccc4[nH]3)c2)c1`, the figure is 6.35; as for `CN(C)CCCOc1cccc(NC(=O)Nc2ccc(-c3ccccc3)cc2)c1`, 6.06.

`O=C(Nc1ccc(OC2CCN(Cc3ccc(F)cc3)C2)c(Cl)c1)c1ccsc1` (stereo unspecified) showed a pIC50 of 6.27. Regarding `Nc1nccc2ccc(-c3ccc4nccn4c3)cc12`, the pIC50 was 7.00. For `COc1cc(CCCON2C(N)=NC(N)=NC2(C)C)cc(OC)c1OC`, the pIC50 was 7.40. Molecule `Cc1nc2c(c(O)c1Cl)-c1ccc(Oc3cccc(C(F)(F)F)c3)cc1C2=O` showed a pIC50 of 7.40. The result for `O=C1C(C2CCC(c3ccc(Cl)cc3)CC2)=C2OCC3COC2(O3)c2ccccc21` (stereo unspecified) reads 7.40.

For `COc1cc(-c2nc3ccc(N4CCN(C)CC4)cc3[nH]2)cc(OC)c1OC`, the negative logarithm of the IC50 (pIC50) was 5.90.

As for `COc1cc(Cc2cnc(N)nc2N)cc(OC)c1OCCCCCN1C(=O)c2ccccc2C1=O`, the pIC50 was 6.21. The result for `COc1ccc(CCN(C)CCc2ccc(NC(=O)c3cccc4c(=O)c5ccccc5sc34)cc2)cc1` reads 6.07; that for `CCCc1cc2c3c(N)nc(N)nc3ccc2n1CC`, 7.30.

In turn, `O=C(NC1CCCCN(Cc2ccccc2O)C1)c1cccc(C(F)(F)F)c1` (stereo unspecified) showed a pIC50 of 6.10. In turn, `NCCCOc1cnc(-c2ccccc2)c2nc(-c3nonc3N)n(CCc3ccccc3)c12` showed a pIC50 of 5.90.

Turning to `O=C(NC1CCN(CCN2CCC(c3ccccc3C(F)(F)F)CC2)CC1)c1ccc(-c2ccc(Cl)cc2)cc1`, the pIC50 was 6.15.

On to `CCNc1cc(C(=O)N[C@@H](Cc2cccc(Cl)c2)[C@H](O)CNC(C)CCCC(C)C)cc(N2CCCCS2(=O)=O)c1` (stereo partly specified), for which the pIC50 is 6.54. Regarding `CC(C)/C(=C(/F)CN1C(=O)C(NC(=O)c2cc3ccccc3[nH]2)C(=O)N(c2ccccc2)c2ccccc21)c1ccccc1` (stereo unspecified), the pIC50 is 6.15. `CC1(C)[C@H]2CC[C@@H](CNc3nc(NCCc4cnc[nH]4)nc(Nc4ccc5c(c4)OCO5)n3)[C@@H]1C2` gave a pIC50 of 6.27.

`CC(=O)Nc1ccc(Nc2c3ccccc3nc3ccccc23)cc1` showed a pIC50 of 5.99.

Regarding `C=C[C@H]1CN(CCCCCCC)CC[C@H]1CCNc1ccnc2ccc(OC)cc12`, the pIC50 is 7.22. Turning to `Cc1ccccc1C1CCN(c2ncc(C(=O)NC3CC3)cc2Cl)CC1`, the pIC50 was 6.15. With `COc1ccccc1C1CCN(C2CCC(NC(=O)/C=C/c3cc(F)cc(C(F)(F)F)c3)CC2)CC1` (stereo unspecified), the pIC50 is 6.05. For the molecule `COc1ccc2c(NN=Cc3ccccc3)cc(C)nc2c1`, the pIC50 was 6.07. With `CCCCN(CCCC)Cc1cc(Nc2ccnc3cc(Cl)ccc23)ccc1O`, the pIC50 was 7.70.

`COc1ccc(CN2CCC(NCc3cccc([N+](=O)[O-])c3)CC2)cc1` showed a negative logarithm of the IC50 (pIC50) of 6.04.

In turn, `CCOC(=O)c1cc(C(=O)OC)c2ccccn12` gave a negative logarithm of the IC50 (pIC50) of 6.66. The result for `O=C(/C=C/c1cccc(Cl)c1)NC1CCC(CN2CCC(c3c[nH]c4ccccc34)CC2)CC1` (stereo unspecified) reads 6.12 and 6.14. `Fc1ccc(-c2cncc(-c3ccc(F)cc3)n2)cc1` had a pIC50 of 6.19. As to `O=C(/C=C/c1ccc(Cl)c(Cl)c1)N1CCCC(CCCN2CCC(c3c[nH]c4ccccc34)CC2)C1` (stereo unspecified), the pIC50 is 5.96.

`COc1ccc2nccc(N3CCN(CCNCc4ccc5c(n4)NC(=O)CS5)CC3)c2c1` showed a pIC50 of 6.02. With `O=C(OCC1CCN(Cc2ccccc2)C1)c1ccc(Cl)cc1` (stereo unspecified), the pIC50 was 6.17. The result for `NC1CCN(CCNCc2cccc(-c3ccc(-c4nc5ccc(C(F)(F)F)cc5[nH]4)cc3)c2)C1` (stereo unspecified) reads 6.05.

Turning to `O=C(Nc1cccc(CCNCc2ccccc2)c1)Nc1cccc2ccccc12`, the pIC50 is 6.14.

Consider `O=C(NC1CCC(CN2CCC(c3c[nH]c4ccccc34)CC2)CC1)c1cc(-c2cccc(Cl)c2)n(-c2ccc(Cl)cc2Cl)n1` (stereo unspecified), for which the pIC50 is 5.97. The result for `CN1CCC(NCc2cccc(-c3cnc(NCc4ccccc4)nc3)c2)CC1` reads 6.01. In turn, `O=C(c1ccc([N+](=O)[O-])o1)N1CCC(Cc2ccc(C(F)(F)F)cc2)CC1` had a pIC50 of 6.77. In the case of `CC[C@H]1CN2CC[C@H]1C[C@H]2[C@H](O)c1cc(-c2ccc(Cl)c(Cl)c2)nc2ccc(OC)cc12`, the negative logarithm of the IC50 (pIC50) is 6.92.

With `O=C(/C=C/c1ccc(Cl)c(Cl)c1)NCCCCCN1CCCN(C(=S)Nc2ccc(Cl)cc2)CC1`, the pIC50 is 5.95.

In the case of `CCOc1c(OC)ccc2c1CCN(CCN1CCC(CNC(=O)c3ccc(-c4ccc(C#N)cc4)cc3)CC1)C2`, the pIC50 is 5.97. Take `CC(C)c1ccc(N(CC(=O)N/N=C/c2ccc(C(F)(F)F)cc2)S(=O)(=O)c2ccc(C(F)(F)F)cc2)cc1`: the pIC50 is 6.07. In turn, `COc1cc(Br)ccc1N1CCN(CCCCNC(=O)c2ccc(NC(=O)c3ccc(Cl)cc3)cc2)CC1` gave a pIC50 of 6.12.

As to `FC(F)(F)COc1ccc2ccccc2c1CCNCCCCNCCc1c(OCC(F)(F)F)ccc2ccccc12`, the pIC50 was 6.37. With `O=C(Nc1ccc2c(c1)CCN(C1CCC1)CC2)c1ccc(-c2cn3ccccc3n2)cc1`, the pIC50 was 6.06. `CN(C)c1cc(NN=Cc2cc(Cl)ccc2O)nc(N(C)C)n1`: the pIC50 is 6.15. Molecule `O=[N+]([O-])c1ccc2nc(Nc3ccc(Cl)c(Cl)c3)c(Nc3ccc(Cl)c(Cl)c3)nc2c1` gave a pIC50 of 6.10. In the case of `Cc1cc(NN=Cc2ccc(F)cc2)c2cccc(C)c2n1`, the pIC50 was 6.11. In turn, `COc1ccc(C=Cc2cc(N)c3ccccc3n2)cc1` had a pIC50 of 6.01. As for `NC(=O)c1ccc2[nH]cc(C3CCN(CC4CCC(NC(=O)/C=C/c5ccc(Cl)c(Cl)c5)CC4)CC3)c2c1` (stereo unspecified), the figure is 6.06 and 6.12. Molecule `CC(C)(C)C1CCc2onc(C(=O)Nc3cc(Cl)ccc3O)c2C1` (stereo unspecified) showed a pIC50 of 6.11. The result for `O=C(Nc1cccc(CN2CCCN(CC3CCCCC3)CC2)c1)c1cc2ccccc2s1` reads 6.09; that for `O=C(/C=C/c1ccc(Cl)c(Cl)c1)NC1CCC(CN2CCC(c3c[nH]c4cc(C(F)(F)F)ccc34)CC2)CC1` (stereo unspecified), 6.05 and 6.55. Molecule `NS(=O)(=O)c1cccc(Nc2nccc(-c3c(-c4cccc(NC(=O)c5c(F)cccc5F)c4)nn4ccccc34)n2)c1` had a pIC50 of 7.15. `NC1=Nc2ccc(Cl)cc2C1(O)c1ccccc1` (stereo unspecified) had a pIC50 of 6.06.

Regarding `Fc1ccc2c(NN=Cc3ccccc3)ccnc2c1`, the pIC50 was 6.13.

In the case of `CCOC(=O)c1ccc(NC(=O)N(Cc2ccc(-c3cccc(CN4CCNCC4)c3)cc2)C2CCN(Cc3ccccc3)CC2)cc1`, the pIC50 was 6.12. As for `CN1CCC(C(=O)Nc2ccc(-c3ccc(-c4nc5ccccc5[nH]4)s3)cc2)CC1`, the pIC50 is 6.09.

Regarding `COc1ccccc1CNC(=O)CCn1c(=O)[nH]c2ccsc2c1=O`, the pIC50 is 5.98.

In the case of `CCCOc1cc(NC(=O)Nc2ccnc3ccccc23)cc(OCCC)c1`, the pIC50 is 6.14. For the molecule `Cc1ccnc(NC(c2ccc(Cl)c([N+](=O)[O-])c2)c2ccc3cccnc3c2O)c1` (stereo unspecified), the negative logarithm of the IC50 (pIC50) is 6.03.
